Experimental data from PubChem BioAssay AID330 (DTP/NCI, 2004).
Values joined by “and” are separate entries in the source; they are usually repeats but may differ in a detail not shown here. Equal entries are not always repeated. Inconclusive results and toxic doses are left out. Peptide text beside a SMILES is read from it. * marks the point of attachment. CH2Cl = ClC*

System: P388 leukemia ip, CD2F1 mice, survival T/C
Assay: NCI In Vivo Anticancer Drug Screen. Data for tumor model P388 Leukemia (intraperitoneal) in CD2F1 (CDF1) mice
Conditions: endpoint: median survival time, higher = longer survival
Summary of the method: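 Mice carrying the transplanted tumor received test compound or vehicle. Survival was recorded in each group, and the value is the treated-group measurement divided by that of the vehicle-treated control group.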

[1] = dose: 3.12 mg/kg/injection, schedule: Q01DX009 (ip), vehicle: Klucel (hydroxypropylcellulose) (HPC)
[2] = dose: 6.25 mg/kg/injection, schedule: Q01DX009 (ip), vehicle: Klucel (hydroxypropylcellulose) (HPC)
[3] = dose: 50.0 mg/kg/injection, schedule: Q01DX005 (ip), vehicle: saline with Tween-80
[4] = dose: 100.0 mg/kg/injection, schedule: Q01DX005 (ip), vehicle: saline with Tween-80
[5] = dose: 200.0 mg/kg/injection, schedule: Q01DX005 (ip), vehicle: saline with Tween-80

With CCN(CC)CCn1[nH]c2c3ccc(=O)cc3sc3c(NCCN)ccc1c32 as the compound, how does the T/C (dose: 3.12 mg/kg/injection, schedule: Q01DX005 (ip), vehicle: water) read?
Its T/C is 122 % of control and 229 % of control and 242 % of control.

And the T/C (dose: 6.25 mg/kg/injection, schedule: Q01DX005 (ip), vehicle: water)?
Its T/C is 184 % of control and 250 % of control and 280 % of control.

And the T/C (dose: 12.5 mg/kg/injection, schedule: Q01DX005 (ip), vehicle: water)?
Its T/C is 166 % of control and 194 % of control and 271 % of control.

With C=CCc1ccccc1/C=N/NS(=O)(=O)c1ccc(C)cc1 as the compound, how does the T/C (dose: 100.0 mg/kg/injection, schedule: Q04DX002 (ip), vehicle: saline with Tween-80) read?
The T/C was 100 % of control.

What about the T/C (dose: 200.0 mg/kg/injection, schedule: Q04DX002 (ip), vehicle: saline with Tween-80) of the same compound?
Its T/C is 98 % of control.

And the T/C (dose: 400.0 mg/kg/injection, schedule: Q04DX002 (ip), vehicle: saline with Tween-80)?
The T/C was 97 % of control.

Which T/C (dose: 50.0 mg/kg/injection, schedule: Q04DX003 (ip), vehicle: Klucel (hydroxypropylcellulose) (HPC)) does the source give for CCCCCCCC/C=C\CCCCCCCC(=O)O here?
Its T/C is 104 % of control.

What about the T/C (dose: 100.0 mg/kg/injection, schedule: Q04DX003 (ip), vehicle: Klucel (hydroxypropylcellulose) (HPC)) of the same compound?
Its T/C is 103 % of control and 97 % of control.

And the T/C (dose: 200.0 mg/kg/injection, schedule: Q04DX003 (ip), vehicle: Klucel (hydroxypropylcellulose) (HPC))?
Its T/C is 102 % of control and 93 % of control.

And the T/C (dose: 400.0 mg/kg/injection, schedule: Q04DX003 (ip), vehicle: Klucel (hydroxypropylcellulose) (HPC))?
Its T/C is 92 % of control.

For CC(=O)NC(CC(C)C)C(=O)NC(Cc1ccccc1)C(=O)CCl (stereo not drawn) (Ac-Leu-Phe-CH2Cl; configuration not given here), which T/C [1] is on record?
Its T/C is 103 % of control.

And the T/C [2]?
The T/C was 113 % of control.

And the T/C (dose: 12.5 mg/kg/injection, schedule: Q01DX009 (ip), vehicle: Klucel (hydroxypropylcellulose) (HPC))?
Its T/C is 120 % of control.

What about the T/C (dose: 25.0 mg/kg/injection, schedule: Q01DX009 (ip), vehicle: Klucel (hydroxypropylcellulose) (HPC)) of the same compound?
Its T/C is 116 % of control.

With CCOC(=O)CC/C(=C/c1cccc(OC)c1)[N+](=O)[O-] as the compound, how does the T/C (dose: 50.0 mg/kg/injection, schedule: Q01DX001 (ip), vehicle: Klucel (hydroxypropylcellulose) (HPC)) read?
Its T/C is 105 % of control.

And the T/C (dose: 100.0 mg/kg/injection, schedule: Q01DX001 (ip), vehicle: Klucel (hydroxypropylcellulose) (HPC))?
Its T/C is 107 % of control.

And the T/C (dose: 200.0 mg/kg/injection, schedule: Q01DX001 (ip), vehicle: Klucel (hydroxypropylcellulose) (HPC))?
Its T/C is 107 % of control.

How did the T/C (dose: 50.0 mg/kg/injection, schedule: Q01DX009 (ip), vehicle: saline with Tween-80) turn out when CC(=NCCN=C(C)c1ccccc1O)c1ccccc1O.[Cu] was run?
The T/C was 105 % of control.

And the T/C (dose: 100.0 mg/kg/injection, schedule: Q01DX009 (ip), vehicle: saline with Tween-80)?
The T/C was 99 % of control.

What about the T/C (dose: 200.0 mg/kg/injection, schedule: Q01DX009 (ip), vehicle: saline with Tween-80) of the same compound?
Its T/C is 89 % of control.

With CCCCNC1=CC(=S)NC(C)(C)C1 as the compound, how does the T/C (dose: 50.0 mg/kg/injection, schedule: Q01DX009 (ip), vehicle: Klucel (hydroxypropylcellulose) (HPC)) read?
Its T/C is 104 % of control.

What about the T/C (dose: 100.0 mg/kg/injection, schedule: Q01DX009 (ip), vehicle: Klucel (hydroxypropylcellulose) (HPC)) of the same compound?
Its T/C is 86 % of control.

And the T/C (dose: 200.0 mg/kg/injection, schedule: Q01DX009 (ip), vehicle: Klucel (hydroxypropylcellulose) (HPC))?
The T/C was 104 % of control.

With CN(Cc1cnc2nc(N)nc(N)c2n1)c1ccc(C(=O)NC(CCC(=O)NC(CCC(=O)O)C(=O)O)C(=O)O)cc1 (centres undefined) as the compound, how does the T/C (dose: 1.56 mg/kg/injection, schedule: Q01DX009 (ip), vehicle: Klucel (hydroxypropylcellulose) (HPC)) read?
Its T/C is 184 % of control and 218 % of control.

What about the T/C [1] of the same compound?
Its T/C is 214 % of control and 94 % of control.

What about the T/C [2] of the same compound?
Its T/C is 88 % of control.

Which results are given for CC(C)NC1(N(C)C)N=C(N(C)C)N=C(N(C)C)O1 (centres undefined)?
T/C (dose: 50.0 mg/kg/injection, schedule: Q01DX005 (ip), vehicle: saline): 101 % of control; T/C (dose: 100.0 mg/kg/injection, schedule: Q01DX005 (ip), vehicle: saline): 101 % of control

Which T/C (dose: 60.0 mg/kg/injection, schedule: Q01DX005 (ip), vehicle: saline with Tween-80) does the source give for COc1ccccc1C1=Nc2ccccc2N=C(c2ccccc2O)C1 here?
Its T/C is 107 % of control.

And the T/C (dose: 120.0 mg/kg/injection, schedule: Q01DX005 (ip), vehicle: saline with Tween-80)?
The T/C was 100 % of control.

What about the T/C (dose: 240.0 mg/kg/injection, schedule: Q01DX005 (ip), vehicle: saline with Tween-80) of the same compound?
The T/C was 90 % of control.

CC(C)=NNC(=O)C1CCN1Cc1ccccc1 (centres undefined) was tested. Which T/C (dose: 50.0 mg/kg/injection, schedule: Q01DX001 (ip), vehicle: saline) did it give?
The T/C was 106 % of control.

What about the T/C (dose: 100.0 mg/kg/injection, schedule: Q01DX001 (ip), vehicle: saline) of the same compound?
The T/C was 106 % of control.

What about the T/C (dose: 200.0 mg/kg/injection, schedule: Q01DX001 (ip), vehicle: saline) of the same compound?
Its T/C is 111 % of control.

And the T/C (dose: 400.0 mg/kg/injection, schedule: Q01DX001 (ip), vehicle: saline)?
Its T/C is 106 % of control.

Which results are given for C=C(C)C(=O)Nc1ccc(-n2[nH]c(C)c(N=Nc3ccc(N(C)C)cc3)c2=O)cc1?
T/C [3]: 98 % of control; T/C [4]: 96 % of control; T/C [5]: 100 % of control

What does the source list for FC(F)(F)c1ccccc1N=Cc1cccs1?
T/C (dose: 50.0 mg/kg/injection, schedule: Q01DX009 (ip), vehicle: saline): 113 % of control; T/C (dose: 100.0 mg/kg/injection, schedule: Q01DX009 (ip), vehicle: saline): 103 % of control; T/C (dose: 200.0 mg/kg/injection, schedule: Q01DX009 (ip), vehicle: saline): 104 % of control

Which T/C [3] does the source give for CC(C)=CCn1c2ccccc2c(=O)c2ccccc21 here?
The T/C was 112 % of control.

What about the T/C [4] of the same compound?
The T/C was 105 % of control.

And the T/C [5]?
Its T/C is 107 % of control.
